Measurements as given in paper PMC7162859 (Scientific Reports, 2020).
Read-outs that look alike come from different tables or passages of the source.

Experiment: Brain distribution after single intraperitoneal dose in FVB wild-type, Bcrp1-/-, Mdr1a/b-/- and Mdr1a/b-/- Bcrp1-/- mice
Assay type: in vivo, mouse (FVB)
Details: for DA (Distribution advantage) / concentration at 2 h / concentration at 6 h / Kp at 2 h / Kp at 6 h: 10 mg/kg i.p.; for concentration at 2 h / concentration at 6 h / Kp at 2 h / Kp at 6 h: FVB, mouse, 10 mg/kg; for concentration at 2 h / concentration at 6 h: intraperitoneal; for Kp at 2 h / Kp at 6 h: brain/plasma, ip, read-out: Kp brain (Cbrain/Cplasma)
Experimental: At 2 and 6 hours following administration of ispinesib, whole blood and brain samples were harvested, and blood samples were centrifuged for plasma separation. Additional details on the conduct of in vivo pharmacokinetic studies are described in the supplementary methods. The drug concentrations in all samples were measured by a specific and sensitive LC-MS/MS assay for ispinesib.
Kp=CbrainCplasma (Equation 4)
DA= Kp, knockoutKp, wildtype (Equation 5)

Cc1ccc(C(=O)N(CCCN)[C@@H](c2nc3cc(Cl)ccc3c(=O)n2Cc2ccccc2)C(C)C)cc1 [Ispinesib, N-(3-aminopropyl)-N-[(1 R)-1-(3-benzyl-7-chloro-4-oxoquinazolin-2-yl)-2-methylpropyl]-4-methylbenzamide]
DA (Distribution advantage) (2 hrs, Bcrp1a/b-/-): 1
DA (Distribution advantage) (2 hrs, Mdr1a/b-/-): 3
DA (Distribution advantage) (2 hrs, Mdr1a/b-/- Bcrp1a/b-/-): 28
DA (Distribution advantage) (2 hrs, Wild-type): 1
DA (Distribution advantage) (6 hrs, Bcrp1a/b-/-): 1
DA (Distribution advantage) (6 hrs, Mdr1a/b-/-): 10
DA (Distribution advantage) (6 hrs, Mdr1a/b-/- Bcrp1a/b-/-): 33
DA (Distribution advantage) (6 hrs, Wild-type): 1
concentration at 2 h (brain, 2 hrs, Bcrp1a/b-/-, read-out: Cbrain): 140 ± 20 ng/mL
concentration at 2 h (brain, 2 hrs, Mdr1a/b-/- Bcrp1a/b-/-, read-out: Cbrain): 3770 ± 670 ng/mL
concentration at 2 h (brain, 2 hrs, Mdr1a/b-/-, read-out: Cbrain): 580 ± 140 ng/mL
concentration at 2 h (brain, 2 hrs, Wild-type, read-out: Cbrain): 180 ± 90 ng/mL
concentration at 6 h (brain, 6 hrs, Bcrp1a/b-/-, read-out: Cbrain): 150 ± 30 ng/mL
concentration at 6 h (brain, 6 hrs, Mdr1a/b-/- Bcrp1a/b-/-, read-out: Cbrain): 5590 ± 2850 ng/mL
concentration at 6 h (brain, 6 hrs, Mdr1a/b-/-, read-out: Cbrain): 1100 ± 100 ng/mL
concentration at 6 h (brain, 6 hrs, Wild-type, read-out: Cbrain): 140 ± 80 ng/mL
Kp at 2 h (2 hrs, Bcrp1a/b-/-): 0.08
Kp at 2 h (2 hrs, Mdr1a/b-/- Bcrp1a/b-/-): 3.07
Kp at 2 h (2 hrs, Mdr1a/b-/-): 0.35
Kp at 2 h (2 hrs, Wild-type): 0.11
Kp at 6 h (6 hrs, Bcrp1a/b-/-): 0.15
Kp at 6 h (6 hrs, Mdr1a/b-/- Bcrp1a/b-/-): 5.2
Kp at 6 h (6 hrs, Mdr1a/b-/-): 1.52
Kp at 6 h (6 hrs, Wild-type): 0.16
concentration at 2 h (plasma, 2 hrs, Bcrp1a/b-/-, read-out: Cplasma): 1740 ± 420 ng/mL
concentration at 2 h (plasma, 2 hrs, Mdr1a/b-/- Bcrp1a/b-/-, read-out: Cplasma): 1590 ± 1070 ng/mL
concentration at 2 h (plasma, 2 hrs, Mdr1a/b-/-, read-out: Cplasma): 1750 ± 730 ng/mL
concentration at 2 h (plasma, 2 hrs, Wild-type, read-out: Cplasma): 1610 ± 720 ng/mL
concentration at 6 h (plasma, 6 hrs, Bcrp1a/b-/-, read-out: Cplasma): 1060 ± 400 ng/mL
concentration at 6 h (plasma, 6 hrs, Mdr1a/b-/- Bcrp1a/b-/-, read-out: Cplasma): 1030 ± 210 ng/mL
concentration at 6 h (plasma, 6 hrs, Mdr1a/b-/-, read-out: Cplasma): 870 ± 540 ng/mL
concentration at 6 h (plasma, 6 hrs, Wild-type, read-out: Cplasma): 870 ± 540 ng/mL
efflux transporter substrate status (from brain distribution in transporter-deleted mice): a substrate for P-gp and Bcrp transporters
